# Where a name gives a salt, the structure may show the parent alone.
# System: BALB/c mice
# Test: Acute toxicity in BALB/c mice, single tail-vein injection (Example 9)
# Format: in vivo, mouse
# Settings: single intravenous injection, 10 mg/kg
# Description: In this example, Compound 23 and Compound 24 were detected for their acute toxicities, and the detection method was as follows.
# Experimental procedure: 40 BALB/c mice, half male and half female, were randomly divided into groups after weight measurement. The weight of an individual should be within the range of the average body weight±20%. Animals should be allowed to acclimatize to the environment for at least 5 days before the test, and healthy (if female, it must be un-pregnant) mice were selected as test animals. The main inspections during the acclimatization period included: whether it met the quality indicators required at the time of ordering; general state check; and whether the weight reached the weight range required by the test. Unqualified abnormal animals were not included in this test. A single tail-vein injection was administrated to the mice at a low, medium, or high dose, which was 5 mg/kg, 10 mg/kg, or 40 mg/kg respectively according to a blank preparation pre-test. An equal volume of vehicle was intravenously injected to establish a control group.
# Mice were observed once respectively at 0 to 2 hours and 4 to 6 hours after each administration. If toxic symptoms occurred, the number of observations could be increased. (2) Gross anatomy observation: All the surviving mice in each group were dissected and observed on the 8th day of the experiment. The abnormal organs and tissues found in the observation of administration sites and in the gross anatomy observation that might be related to the test samples were photographed and recorded. (3) Disposal of dying animals: The state of the mouse and the observation time were recorded, and the body weight was measured. (4) Disposal of dead animals: The time of death or the time when the death was found was recorded, the body weight was measured, and then the dissection was quickly performed for gross observation to speculate the cause of death.
row,SMILES,animals that died
1,Br.C=C1C(=O)C23C(O)CC4C(C)(C)c5nc(NC)sc5CC4(C)C2CCC1C3O (stereo not shown) [Compound 24],All animals

# System: mouse spleen lymphocytes
# Test: ConA-induced proliferation of mouse spleen lymphocytes, MTT (Example 8)
# Format: cell-based
# Settings: Table 4, 0.001 μg/mL, 48 h, 5 μg/mL ConA
# Description: In this example, the glaucocalyxin A derivatives and pharmaceutically acceptable salts thereof were detected for the effect thereof on ConA-induced proliferation of mouse spleen lymphocytes.
# 2×10^7/mL cell suspension was prepared and a 5 μg/μL ConA stock solution was added thereto at a final concentration of 5 μg/mL. The resulting mixture was inoculated into a 96-well culture plate at 0.1 mL per well. Then 0.1 mL of test compound at different concentrations was added to each well. Triplicate or quadruplicate wells were set up for each group, and a vehicle control group (without compound), a stimulant control group (with ConA, without compound, and without vehicle), a cell control group (without ConA, without compound, and without vehicle), and a blank medium control group (without cells, a well for null adjustment) were also set up, and cultured at 37° C., 5% CO2 for 48 h. MTT solution at 5 mg/mL was added at 20 μl per well, and cultured for an additional 4 hours. The culture plate was taken out and centrifuged at 1000 rpm for 10 min. The supernatant of each well was aspirated, and 100 μL of SDS cell lysis solution was added to each well, and cultured overnight. On the next day, the absorbance at 550 nm (OD550nm) was measured on an enzyme-linked immunoassay analyzer. The results were expressed as the mean OD550nm value of the triplicates or quadruplicates±standard deviation (x±sd). SPSS software version 17.0 was used for statistical analysis of the mean values, that is, the vehicle group was compared with the stimulant group, and the test group of each compound concentration was compared with the corresponding vehicle control group. The cell survival rate of each group was calculated according to the mean value for the compound treatment group and the mean value for the vehicle control group, that is, the cell survival rate (%)=the mean value for the compound treatment group/the mean value for the vehicle control group×100%. A linear regression equation was obtained by plotting the cell survival rate of each group against the concentration of the test compound, statistical test of the correlation coefficient was conducted, and then the IC50 value was determined.
SMILES,OD550nm value (x ± sd),Survival rate (%)
"CC(C)[C@]12O[C@H]1[C@@H]1O[C@]13[C@]1(O[C@H]1C[C@H]1C4=C(CC[C@@]13C)C(=O)OC4)[C@@H]2O [triptolide, reference compound]",1.03,98%

# Same assay, conditions: Table 4, 0.1 μg/mL, 48 h, 5 μg/mL ConA
SMILES,OD550nm value (x ± sd),Survival rate (%)
"CC(C)[C@]12O[C@H]1[C@@H]1O[C@]13[C@]1(O[C@H]1C[C@H]1C4=C(CC[C@@]13C)C(=O)OC4)[C@@H]2O [triptolide, reference compound]",0.42,40%

# Same assay, conditions: range of concentrations tested, 48 h, 5 μg/mL ConA
row,SMILES,effect on ConA-induced proliferation of mouse spleen lymphocytes (in words)
1,"CC(C)[C@]12O[C@H]1[C@@H]1O[C@]13[C@]1(O[C@H]1C[C@H]1C4=C(CC[C@@]13C)C(=O)OC4)[C@@H]2O [triptolide, reference compound]",varying degrees of inhibition

# System: human keratinocytes (HaCaT)
# Test: Effect on proliferation of human keratinocytes, CCK-8, 48 h (Example 5)
# Format: cell-based
# Settings: 48 hours of treatment
# Description: In this example, the glaucocalyxin A derivatives of the present application, or pharmaceutically acceptable salts thereof, were examined for the effect on the proliferation of human keratinocytes. In this example, the glaucocalyxin A derivatives as shown in Table 1 were examined by using the following procedure. A cell suspension was prepared and inoculated into three 96-well plates at 8000 cells in a volume of 150 μl per well, which were then cultured overnight in an incubator at 37° C., 5% CO2. On the next day, 50 μl of test compound solution at different concentrations was added to each well. Triplicate wells were set up for each concentration. A vehicle control group (without compound), a cell control group (without compound and vehicle), and a blank medium control group (without cells, a well for null adjustment) were also set up, and cultured for an additional 48 hours. CCK-8 staining working solution was added at 110 μL per well, and cultured for additional 1-4 h. At the end of the culture, the absorbances were measured at 450 nm (OD450 nm) on a Bio-Tek enzyme-linked immunosorbent assay. The results were expressed as the mean OD450 nm value of triplicates±standard deviation (x±sd). The Origin 7.0 was used for plotting and analysis. A fitting curve was obtained by plotting the OD value of each group against the logarithmic concentration of the test compound, and then the IC50 value was determined.
row,SMILES,IC50
1,C=C1C(=O)C23C(O)CC4C(C)(C)c5nc(N)sc5CC4(C)C2CCC1C3O (stereo not shown) [Compound 01],3.21 µM
2,C=C1C(=O)C23C(O)CC4C(C)(C)c5nc(N)sc5CC4(C)C2CCC1C3O (stereo not shown) [Compound 02],3.52 µM
3,C=C1C(=O)C23C(O)CC4C(C)(C)c5nc(N)sc5CC4(C)C2CCC1C3O (stereo not shown) [Compound 03],4.02 µM
4,C=C1C(=O)C23C(O)CC4C(C)(C)c5nc(N)sc5CC4(C)C2CCC1C3O (stereo not shown) [Compound 04],4.1 µM
5,C=C1C(=O)C23C(O)CC4C(C)(C)c5nc(N)sc5CC4(C)C2CCC1C3O (stereo not shown) [Compound 05],3.45 µM
6,C=C1C(=O)C23C(O)CC4C(C)(C)c5nc(N)sc5CC4(C)C2CCC1C3O (stereo not shown) [Compound 06],2.91 µM
7,C=C1C(=O)C23C(O)CC4C(C)(C)c5nc(N)sc5CC4(C)C2CCC1C3O (stereo not shown) [Compound 07],3.28 µM
8,C=C1C(=O)C23C(O)CC4C(C)(C)c5nc(N)sc5CC4(C)C2CCC1C3O (stereo not shown) [Compound 08],2.85 µM
9,C=C1C(=O)C23C(O)CC4C(C)(C)c5nc(N)sc5CC4(C)C2CCC1C3O (stereo not shown) [Compound 09],2.42 µM
10,C=C1C(=O)C23C(O)CC4C(C)(C)c5nc(N)sc5CC4(C)C2CCC1C3O (stereo not shown) [Compound 10],3.86 µM
11,C=C1C(=O)C23C(O)CC4C(C)(C)c5nc(N)sc5CC4(C)C2CCC1C3O (stereo not shown) [Compound 11],3 µM
12,C=C1C(=O)C23C(O)CC4C(C)(C)c5nc(NN)sc5CC4(C)C2CCC1C3O (stereo not shown) [Compound 12],1.21 µM
13,C=C1C(=O)C23C(O)CC4C(C)(C)c5nc(Nc6ccncc6)sc5CC4(C)C2CCC1C3O (stereo not shown) [Compound 13],3.62 µM
14,C=C1C(=O)C23C(O)CC4C(C)(C)c5nc(NCCC)sc5CC4(C)C2CCC1C3O (stereo not shown) [Compound 14],7 µM
15,C=C1C(=O)C23C(O)CC4C(C)(C)c5nc(NC(C)C)sc5CC4(C)C2CCC1C3O (stereo not shown) [Compound 15],6.95 µM
16,C=C1C(=O)C23C(O)CC4C(C)(C)c5nc(NCCCC)sc5CC4(C)C2CCC1C3O (stereo not shown) [Compound 16],8.88 µM
17,C=C1C(=O)C23C(O)CC4C(C)(C)c5nc(NCCCCCC)sc5CC4(C)C2CCC1C3O (stereo not shown) [Compound 17],4.29 µM
18,C=CCNc1nc2c(s1)CC1(C)C(CC(O)C34C(=O)C(=C)C(CCC13)C4O)C2(C)C (stereo not shown) [Compound 18],7.24 µM
19,C=C1C(=O)C23C(O)CC4C(C)(C)c5nc(NC6CCCCC6)sc5CC4(C)C2CCC1C3O (stereo not shown) [Compound 19],8.16 µM
20,C=C1C(=O)C23C(O)CC4C(C)(C)c5nc(Nc6ccccc6)sc5CC4(C)C2CCC1C3O (stereo not shown) [Compound 20],9.31 µM
21,C=C1C(=O)C23C(O)CC4C(C)(C)c5nc(NCc6ccccc6)sc5CC4(C)C2CCC1C3O (stereo not shown) [Compound 21],9.2 µM
22,C=C1C(=O)C23C(O)CC4C(C)(C)c5nc(N(C)C)sc5CC4(C)C2CCC1C3O (stereo not shown) [Compound 22],0.95 µM
23,Br.C=C1C(=O)C23C(O)CC4C(C)(C)c5nc(NC)sc5CC4(C)C2CCC1C3O (stereo not shown) [Compound 24],3.17 µM
24,C=C1C(=O)C23C(O)CC4C(C)(C)c5nc(NCC)sc5CC4(C)C2CCC1C3O (stereo not shown) [Compound 25],5.49 µM
25,C=C1C(=O)C23C(O)CC4C(C)(C)c5nc(NCCC)sc5CC4(C)C2CCC1C3O (stereo not shown) [Compound 26],7.86 µM
26,C=C1C(=O)C23C(O)CC4C(C)(C)c5nc(NC(C)C)sc5CC4(C)C2CCC1C3O (stereo not shown) [Compound 27],6.92 µM
27,C=C1C(=O)C23C(O)CC4C(C)(C)c5nc(N(CC)CC)sc5CC4(C)C2CCC1C3O (stereo not shown) [Compound 28],1.26 µM
28,C=C1C(=O)C23C(O)CC4C(C)(C)c5nc(N(CCC)CCC)sc5CC4(C)C2CCC1C3O (stereo not shown) [Compound 29],1.85 µM
29,C=C1C(=O)C23C(O)CC4C(C)(C)c5nc(N(C(C)C)C(C)C)sc5CC4(C)C2CCC1C3O (stereo not shown) [Compound 30],2.37 µM

# Same assay, conditions: Homo sapiens, 48 hours of treatment
row,SMILES,IC50
1,"C=C1C(=O)[C@@]23[C@H](O)C[C@@H]4C(C)(C)C(=O)CC[C@@]4(C)[C@@H]2CC[C@@H]1[C@H]3O [Compound 31, glaucocalyxin A]",30.5 µM
2,"CN(C)C[C@@H]1C(=O)C23C(O)C1CCC2[C@]1(C)CCC(=O)C(C)(C)[C@H]1C[C@H]3O (stereo partly shown) [Compound 32, dimethylamino glaucocalyxin A hydrochloride, reference compound]",18.7 µM
